According to patent US20040132700A1, “Use of fluticasone propionate in the treatment of diseases ameliorated by enhancement of epithelial madrix adhesion such as asthma cystic fibrosis and influenza” (priority 2001, published 2004):

Columns and labels:
Format in all cases: cell-based
16HBe14o- cells [1] = assay: human sputum elastase (HSE) induced hole formation and loss of TER in 16HBe14o- monolayers
Method: (§1) 16HBe14o- cells were grown on transwell clear membranes until they formed an electrically tight monolayer. In the absence of serum, the cells were treated for 24 hours with FP or vehicle. 5 μg/ml human sputum elastase (HSE) or 5 μg/ml Pseudomonas Aeruginosa elastase (PAE) was then added to the basolateral surface of the cells. The transepithelial resistance (TER) and the morphology of the monolayers were monitored over the next 24 hours.
(§2) When HSE was added to the basal surface of the both the 16HBE14o- and primary bronchial epithelial cells it caused a lowering of TER and formation of holes in the cell monolayers. […] When the cells were treated with PAE, the monolayer detached from the underlying membrane as a complete sheet. It took 4 hours for all of the control cultures treated with PAE to become detached whereas it took 8 hours for all of the FP pretreated cultures to become detached.

[2] = test system: human primary bronchial epithelial cells; assay: human sputum elastase (HSE) induced hole formation and loss of TER in primary bronchial epithelial cells
Method: as §1, §2

16HBe14o- cells [3] = assay: Pseudomonas aeruginosa elastase (PAE) induced detachment and loss of TER of 16HBe14o- monolayers
Method: as §1, §2

16HBE epithelial cells = assay: mechanical wounding of confluent 16HBE epithelial cultures, wound area; details: 16HBE cultures, various steroid concentrations for 24 h or 48 h before wounding (FIG. 7), versus control cultures
Method: To study the effect of FP on protection from mechanical damage, multiple concentric wounds were generated in multiwell plates, thus achieving a large total wound length for analysis. 10^4 cells in 0.2 ml of growth medium containing 5% steroid-free FCS were added to wells in 96 well plates and cultured until confluent with regular changes of growth medium. Cultures were incubated for a further 24 h or 48 h before wounding. After wounding, cultures were rinsed in PBS, fixed at room temperature in methanol/acetone (50/50), air dried and then stained with 0.1% crystal violet. Wound areas were determined using a Leica Q550IW image analysis system. […] The steroid effects were obvious at 24 h, but even more marked at 48 h. At the latter time point, control wound size had increased, whilst the highest dose of either steroid had reduced wound size, compared to wounds after 24 h exposure. […] In the control cultures, tearing of the epithelium from the dish surface beyond the area of direct contact with the needle occurs producing a wound width that is much greater than the needle width. In contrast, in steroid treated cultures, wounds become progressively smaller with increasing steroid concentration until the damage area is limited to the epithelium that has had direct contact with the needle.

Compound: CCC(=O)O[C@]1(C(=O)SCF)[C@H](C)C[C@H]2[C@@H]3C[C@H](F)C4=CC(=O)C=C[C@]4(C)[C@@]3(F)[C@@H](O)C[C@@]21C [FP, S-fluoromethyl 6α, 9β-difluoro-11β-hydroxy-16α-methyl-17α-propionyloxy-3-oxoandrosta-1,4-diene-17β-carbothiate]
- rate of hole formation in cell monolayer (16HBe14o- cells [1]; 16HBE14o- cells, 24 h FP pretreatment, 5 μg/ml HSE basolateral, monitored over 24 hours): reduction in the rate of hole formation
- loss of TER induced by HSE (16HBe14o- cells [1]; 16HBe14o- cells, after 24 hour incubation with HSE (FIG. 2)): protective effect
- loss of TER induced by human sputum elastase ([2]; primary bronchial epithelial cells (FIG. 3)): protective effect
- rate of hole formation in cell monolayer ([2]; primary bronchial epithelial cells, FP pretreatment, HSE added to basal surface): reduction in the rate of hole formation
- loss of TER induced by pseudomonas elastase (16HBe14o- cells [3]; 16HBe14o- cells (FIG. 5)): protective effect
- time for all cultures to become detached from the underlying membrane (16HBe14o- cells [3]; 16HBe14o- cells, 24 h FP pretreatment, 5 μg/ml PAE basolateral, control cultures 4 hours): 8 h
- wound size (wound area) (16HBE epithelial cells): dose-related decrease in wound size
